Reference: patent publication US12605374B2, “Methods for drug screening and compositions useful for the inhibition of cell proliferation and/or cell survival” (The Brigham and Women's Hospital, Inc., priority 2019, dated 2026)
“Also recorded” adds a separate entry of the source.

What was measured:
zebrafish embryos [1] = experiment: Respiration rate analysis (Seahorse XF24 oxygen consumption); type: in vivo; conditions: embryos from 5 hpf, versus DMSO control
Procedure: Analysis of embryonic respiration was performed using a Seahorse XF24 analyzer (Agilent). Embryos at 5 hours post fertilization were arrayed in E3 media at 3 per well in a 24-well standard Seahorse plate using an isolating mesh (as in Stackley et al^72). Each plate contained four replicates of each indicated compound of interest, as well as 4 control wells receiving the equivalent DMSO as contained in the indicated compound solution, and 4 wells with no embryos present to act as a baseline for oxygen content of the media. The sample baseline was read for 5 cycles (3 minute mix, 2 minute wait, 5 minute measure), then compounds were introduced in a single 40-cycle injection phase (3 minute mix, 2 minute wait, 5 minute measure). Measurement data were exported using Seahorse software (Agilent) and averaged over 3 experimental days.

zebrafish embryos [2] = experiment: DA5 dose, time course and washout analysis of developmental delay/arrest; type: in vivo
Text: FIG. 4 (A)-(E): Function of delay/arrest compounds. 7 of the 10 compounds predicted as having a delay/arrest phenotype with the highest confidence caused obvious but divergent delay/arrest effects (A). For chemical structures associated with these Chembridge IDs see Figure S13. (www.chembridge.com). Some arrested development at shield stage, while others caused a slower developmental progression.
We reasoned that this was likely due to differences in the target affinities of the various DA compounds.

[3] = target: T1, recombinant human Topoisomerase I (Homo sapiens, UniProt P11387); experiment: Topoisomerase I and DNA binding gel electrophoresis assay; type: biochemical
T1 construct: purchased TopoGEN, Inc. TG2005H
T1 sequence (P11387 1-765): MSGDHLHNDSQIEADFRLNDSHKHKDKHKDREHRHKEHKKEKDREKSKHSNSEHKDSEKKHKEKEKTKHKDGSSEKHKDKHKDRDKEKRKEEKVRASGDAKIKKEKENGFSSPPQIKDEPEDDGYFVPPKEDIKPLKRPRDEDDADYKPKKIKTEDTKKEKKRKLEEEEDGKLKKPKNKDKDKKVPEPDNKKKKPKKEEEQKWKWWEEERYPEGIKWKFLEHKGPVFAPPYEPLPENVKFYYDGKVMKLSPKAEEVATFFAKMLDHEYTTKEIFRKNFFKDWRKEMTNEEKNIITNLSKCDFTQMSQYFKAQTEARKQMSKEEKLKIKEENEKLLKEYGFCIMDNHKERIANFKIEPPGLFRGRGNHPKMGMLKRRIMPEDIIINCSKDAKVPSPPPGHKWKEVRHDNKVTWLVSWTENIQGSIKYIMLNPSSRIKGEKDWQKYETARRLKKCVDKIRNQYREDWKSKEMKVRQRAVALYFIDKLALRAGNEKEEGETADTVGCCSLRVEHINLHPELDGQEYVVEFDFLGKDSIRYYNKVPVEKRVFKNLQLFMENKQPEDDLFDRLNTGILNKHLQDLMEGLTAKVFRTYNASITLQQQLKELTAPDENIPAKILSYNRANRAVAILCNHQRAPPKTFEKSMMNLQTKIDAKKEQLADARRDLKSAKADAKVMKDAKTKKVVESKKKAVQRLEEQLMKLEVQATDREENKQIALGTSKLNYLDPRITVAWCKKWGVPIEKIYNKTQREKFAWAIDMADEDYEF
Procedure: FIG. 12: Topoisomerase I and DNA binding assay for DA5. The effect of DA5 on Topoisomerase-mediated DNA unwinding is measured through a gel electrophoresis assay (see Methods).
0.5 ug of pHOT-1 supercoiled DNA (TopoGEN, Inc. TG2030-2) was combined with 2× Topoisomerase I assay buffer (50 mM Tris-HCL (ph7.9), 1 mM EDTA, 1 mM DTT, 20% (v/v) glycerol, 50 mM NaCl), nuclease free water and either DMSO vehicle control, m-AMSA positive control (100-1000 uM; TopoGEN, Inc. […] TG2005H) was added to treatments corresponding to lanes 3-12 with 2 ul of dilution buffer (5 mM Tris-HCL (pH 7.9), 1 mM EDTA, 1 mM DTT, 50% (v/v) glycerol, 500 mM NaCl) added to control treatments lacking enzyme (lanes 2, 13 and 14). Reactions were mixed and incubated at 37° C. for 30 minutes. Reactions were terminated with the addition of 20 ul nuclease free water and 50 ul of 1-butanol (water-saturated) followed by vortex and centrifugation at 13,000 rpm for 1 minute. The lower aqueous phase was removed and added to 50 ul chloroform/isoamyl alcohol (24/1) and 50 ul of 2×STEB buffer (40% (w/v) sucrose, 100 mM Tris-HCL (pH 8), 1 mM EDTA, 0.5 mg/ml bromophenol blue) followed by mixing and centrifugation at 13,000 rpm for 1 minute. […] The gel was stained with ethidium bromide for 15 minutes followed by de-staining in distilled water for 10 minutes. Gels were exposed and images acquired using the iBrightFL1000 gel documentation system (Invitrogen).

[4] = system: Human osteosarcoma cells (U-2 OS); experiment: EdU proliferation assay in human cell line; type: cell-based; conditions: osteoblastic / immortalized cells (U-2 OS), four hours after drug introduction; positive control c-Myc inhibitor 10058-F4
Procedure: FIG. 16 (A)-(C): Effect of DA5 in human cell culture. Proliferation of osteoblastic cells was measured following introduction of DA5.
Human osteosarcoma cells (U-2 OS) were obtained from ATCC (HTB-96) and re-suspended in McCoy's 5a medium (ATCC 30-2007) containing 10% FBS and penicillin/streptomycin. Cells were passaged at least 5 times before use in proliferation assays. To perform the proliferation assay, cells were trypsinized using standard protocols, plated at 1000 cells per well in 96-well clear-bottom black cell culture treated plates, and allowed 24 hours to attach. Compounds of interest were dissolved in DMSO and introduced at an overall DMSO concentration not exceeding 0.1% by volume. Four hours after drug introduction, cells were stained and fixed using the protocol described in the Click-iT EdU Alexa Fluor 488 Imaging kit (Thermo Fisher), with Hoescht staining used to identify total cell numbers. Each well was imaged using a Nikon Eclipse Ti Epifluorescent microscope with automated stage and counts of dividing and total cells were obtained in an automated fashion using Nikon's NIS Elements software. Percent of dividing cells reported is the result of at least 4 replicates. Controls were given the same DMSO concentration by volume as compound-treated wells.

Phospholipase A2 = Phospholipase A2 (Apis mellifera, UniProt P00630); type: biochemical
Chain of Phospholipase A2 (P00630 34-167 limits assumed): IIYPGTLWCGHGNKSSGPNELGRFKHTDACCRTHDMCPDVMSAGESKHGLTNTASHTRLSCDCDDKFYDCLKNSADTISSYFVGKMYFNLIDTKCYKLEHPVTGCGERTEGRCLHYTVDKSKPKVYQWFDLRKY

Structure (SMILES): CCC1(CC)CCN(C(=O)c2cc(COc3ccc4ncccc4c3)on2)C1 [ChemBridge ID 65692859, 6-([3-[(3,3-diethylpyrrolidin-1-yl)carbonyl]isoxazol-5-yl]methoxy)quinoline]
- respiration rate (oxygen consumption rate) (zebrafish embryos [1]): consistent respiration rate
- time course analysis: effect in more developed embryos (zebrafish embryos [2]; introduced at 24 hours post fertilization and beyond): mortality being almost immediate
- time course analysis: effect on early development (zebrafish embryos [2]; introduced at early stages (<12 h), up to and during gastrulation, listed as DA5): arrest up to and during gastrulation immediately after introduction; also recorded: arrested development at any stage of early (<12 h) development
- developmental phenotype (zebrafish embryos [2]; introduced in zebrafish embryo medium at 5 μM): developmental delay
- developmental phenotype (zebrafish embryos [2]; introduced in zebrafish embryo medium at 10 μM): sphere stage arrest
- recovery of embryos after washout (zebrafish embryos [2]; washout of compound): did not allow embryos to recover
- DNA-binding / DNA intercalation / inhibition of Topoisomerase I ([3]; DNA intercalation analysis, listed as DA5): not due to DNA-binding or inhibition of Topoisomerase (TOPO) I; also recorded: not observed
- effect on Topoisomerase-mediated DNA unwinding (gel electrophoresis) ([3]; concentrations up to 100 mM (so in the source), versus DMSO): no more effect on DNA cleavage than DMSO
- suppression of cell proliferation [4]: greater than that seen with positive control
- activity of phospholipase A2 (Phospholipase A2): increased activity
